Several values for one entry are separate records, joined by “and”; a condition that tells them apart may be missing. Equal values may be shown once.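 Values below derive from 48-hour exposures of cells grown in 96-well plates, with endpoints linearly interpolated between the two concentrations bracketing the appropriate inhibition level. GI50 marks 50% less growth. Definition used: TGI = concentration required for complete inhibition of growth.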
Columns and labels:
Test in all cases: NCI tumour cell line growth inhibition, 48 h
786-0 renal = tested on: 786-0 renal
ACHN renal = tested on: ACHN renal
BT-549 breast = tested on: BT-549 breast
DU-145 prostate = tested on: DU-145 prostate
HCC-2998 colon = tested on: HCC-2998 colon
M14 melanoma = tested on: M14 melanoma
MDA-MB-231 breast = tested on: MDA-MB-231 breast
MDA-MB-435 = tested on: MDA-MB-435
MDA-N = tested on: MDA-N
MOLT-4 leukemia = tested on: MOLT-4 leukemia
NCI/ADR-RES ovarian = tested on: NCI/ADR-RES ovarian
P388 leukemia = tested on: P388 leukemia
PC-3 prostate = tested on: PC-3 prostate
RXF 393 renal = tested on: RXF 393 renal
SF-295 CNS = tested on: SF-295 CNS
SNB-78 CNS = tested on: SNB-78 CNS
TK-10 renal = tested on: TK-10 renal
A498 renal = tested on: A498 renal
A549 NSCLC = tested on: A549 NSCLC
CAKI-1 renal = tested on: CAKI-1 renal
CCRF-CEM leukemia = tested on: CCRF-CEM leukemia
COLO 205 colon = tested on: COLO 205 colon
DLD-1 colon = tested on: DLD-1 colon
DMS 114 small cell lung = tested on: DMS 114 small cell lung
HCT-116 colon = tested on: HCT-116 colon
HCT-15 colon = tested on: HCT-15 colon
HOP-18 NSCLC = tested on: HOP-18 NSCLC
HOP-62 NSCLC = tested on: HOP-62 NSCLC
HOP-92 NSCLC = tested on: HOP-92 NSCLC
HT29 colon = tested on: HT29 colon
IGROV1 ovarian = tested on: IGROV1 ovarian
KM12 colon = tested on: KM12 colon
KM20L2 colon = tested on: KM20L2 colon
LOX IMVI melanoma = tested on: LOX IMVI melanoma
LXFL 529 NSCLC = tested on: LXFL 529 NSCLC
M19-MEL melanoma = tested on: M19-MEL melanoma
MALME-3M melanoma = tested on: MALME-3M melanoma
NCI-H226 lung = tested on: NCI-H226 lung
NCI-H23 lung = tested on: NCI-H23 lung
NCI-H460 lung = tested on: NCI-H460 lung
NCI-H522 lung = tested on: NCI-H522 lung
OVCAR-3 ovarian = tested on: OVCAR-3 ovarian
OVCAR-4 ovarian = tested on: OVCAR-4 ovarian
OVCAR-5 ovarian = tested on: OVCAR-5 ovarian
OVCAR-8 ovarian = tested on: OVCAR-8 ovarian
RPMI-8226 leukemia = tested on: RPMI-8226 leukemia
RXF-631 renal = tested on: RXF-631 renal
SF-268 CNS = tested on: SF-268 CNS
SF-539 CNS = tested on: SF-539 CNS
SK-MEL-2 melanoma = tested on: SK-MEL-2 melanoma
SK-MEL-28 melanoma = tested on: SK-MEL-28 melanoma
SK-MEL-5 melanoma = tested on: SK-MEL-5 melanoma
SK-OV-3 ovarian = tested on: SK-OV-3 ovarian
SN12C renal = tested on: SN12C renal
SNB-19 CNS = tested on: SNB-19 CNS
SNB-75 CNS = tested on: SNB-75 CNS
SR leukemia = tested on: SR leukemia
SW-620 colon = tested on: SW-620 colon
U251 CNS = tested on: U251 CNS
UACC-257 melanoma = tested on: UACC-257 melanoma
UACC-62 melanoma = tested on: UACC-62 melanoma
UO-31 renal = tested on: UO-31 renal
DMS 273 small cell lung = tested on: DMS 273 small cell lung
EKVX NSCLC = tested on: EKVX NSCLC
HL-60(TB) leukemia = tested on: HL-60(TB) leukemia
K-562 leukemia = tested on: K-562 leukemia
XF 498 CNS = tested on: XF 498 CNS

## CC[C@@H](C)[C@@H]1NC(=O)C(NC(=O)C(CC(C)C)N(C)C(=O)C2CCCN2C(=O)C(C)O)C(C)OC(=O)C(Cc2ccc(OC)cc2)N(C)C(=O)C2CCCN2C(=O)C(CC(C)C)NC(=O)C(C)C(=O)C(C(C)C)OC(=O)C[C@H]1O (stereo partly drawn)
786-0 renal
  TGI: 0.00827 µM and 0.0533 µM
ACHN renal
  TGI: 0.0204 µM and 0.053 µM
BT-549 breast
  TGI: 0.0967 µM
DU-145 prostate
  TGI: 0.0504 µM
HCC-2998 colon
  TGI: 0.00511 µM and 0.0314 µM
M14 melanoma
  TGI: 0.00648 µM and 0.039 µM
MDA-MB-231 breast
  TGI: 0.0199 µM and 0.053 µM
MDA-MB-435
  TGI: 0.00316 µM and 0.00845 µM
MDA-N
  GI50: 0.0021 µM
MOLT-4 leukemia
  TGI: 0.0547 µM and 0.0255 µM
NCI/ADR-RES ovarian
  TGI: 1.88 µM and 0.359 µM
P388 leukemia
  TGI: 0.03 µM and < 0.0103 µM
PC-3 prostate
  GI50: 0.00251 µM
  TGI: 0.0425 µM and 0.0487 µM
RXF 393 renal
  TGI: 0.01 µM and 0.0647 µM
SF-295 CNS
  TGI: 0.0115 µM and 0.0194 µM and 0.029 µM
SNB-78 CNS
  GI50: 1.65 pM
TK-10 renal
  TGI: 0.0495 µM and 0.0741 µM

## O=C(NC1CCCCC1)c1c(O)[nH]c(=S)[nH]c1=O
786-0 renal
  TGI: > 100 µM
A498 renal
  TGI: > 100 µM
A549 NSCLC
  TGI: > 100 µM
ACHN renal
  TGI: > 100 µM
CAKI-1 renal
  TGI: > 100 µM
CCRF-CEM leukemia
  TGI: > 100 µM
COLO 205 colon
  TGI: > 100 µM
DLD-1 colon
  TGI: > 100 µM
DMS 114 small cell lung
  TGI: > 100 µM
HCT-116 colon
  TGI: > 100 µM
HCT-15 colon
  TGI: > 100 µM
HOP-18 NSCLC
  TGI: > 100 µM
HOP-62 NSCLC
  TGI: > 100 µM
HOP-92 NSCLC
  TGI: > 100 µM
HT29 colon
  TGI: > 100 µM
IGROV1 ovarian
  TGI: > 100 µM
KM12 colon
  TGI: > 100 µM
KM20L2 colon
  TGI: > 100 µM
LOX IMVI melanoma
  TGI: > 100 µM
LXFL 529 NSCLC
  TGI: > 100 µM
M14 melanoma
  TGI: > 100 µM
M19-MEL melanoma
  TGI: > 100 µM
MALME-3M melanoma
  TGI: > 100 µM
MOLT-4 leukemia
  TGI: > 100 µM
NCI-H226 lung
  TGI: > 100 µM
NCI-H23 lung
  TGI: > 100 µM
NCI-H460 lung
  TGI: > 100 µM
NCI-H522 lung
  TGI: > 100 µM
OVCAR-3 ovarian
  TGI: > 100 µM
OVCAR-4 ovarian
  TGI: > 100 µM
OVCAR-5 ovarian
  TGI: > 100 µM
OVCAR-8 ovarian
  TGI: > 100 µM
RPMI-8226 leukemia
  TGI: > 100 µM
RXF-631 renal
  TGI: > 100 µM
SF-268 CNS
  TGI: > 100 µM
SF-295 CNS
  TGI: > 100 µM
SF-539 CNS
  TGI: > 100 µM
SK-MEL-2 melanoma
  TGI: > 100 µM
SK-MEL-28 melanoma
  TGI: > 100 µM
SK-MEL-5 melanoma
  TGI: > 100 µM
SK-OV-3 ovarian
  TGI: > 100 µM
SN12C renal
  TGI: > 100 µM
SNB-19 CNS
  TGI: > 100 µM
SNB-75 CNS
  TGI: > 100 µM
SNB-78 CNS
  TGI: > 100 µM
SR leukemia
  TGI: > 100 µM
SW-620 colon
  TGI: > 100 µM
TK-10 renal
  TGI: > 100 µM
U251 CNS
  TGI: > 100 µM
UACC-257 melanoma
  TGI: > 100 µM
UACC-62 melanoma
  TGI: > 100 µM
UO-31 renal
  TGI: > 100 µM

## O=C(O)CSc1n[nH]c(/C=C/c2ccccc2)n1
786-0 renal
  TGI: > 100 µM
A498 renal
  TGI: > 100 µM
A549 NSCLC
  TGI: > 100 µM
ACHN renal
  TGI: > 100 µM
CAKI-1 renal
  TGI: > 100 µM
CCRF-CEM leukemia
  TGI: > 100 µM
COLO 205 colon
  TGI: > 100 µM
DLD-1 colon
  TGI: > 100 µM
DMS 114 small cell lung
  TGI: > 100 µM
DMS 273 small cell lung
  TGI: > 100 µM
EKVX NSCLC
  TGI: > 100 µM
HCC-2998 colon
  TGI: > 100 µM
HCT-116 colon
  TGI: > 100 µM
HCT-15 colon
  TGI: > 100 µM
HL-60(TB) leukemia
  TGI: > 100 µM
HOP-18 NSCLC
  TGI: > 100 µM
HOP-62 NSCLC
  TGI: > 100 µM
HOP-92 NSCLC
  TGI: > 100 µM
HT29 colon
  TGI: > 100 µM
IGROV1 ovarian
  TGI: > 100 µM
K-562 leukemia
  TGI: > 100 µM
KM12 colon
  TGI: > 100 µM
KM20L2 colon
  TGI: > 100 µM
LOX IMVI melanoma
  TGI: > 100 µM
LXFL 529 NSCLC
  TGI: > 100 µM
M14 melanoma
  TGI: > 100 µM
M19-MEL melanoma
  TGI: > 100 µM
MALME-3M melanoma
  TGI: > 100 µM
MOLT-4 leukemia
  TGI: > 100 µM
NCI-H226 lung
  TGI: > 100 µM
NCI-H23 lung
  TGI: > 100 µM
NCI-H460 lung
  TGI: > 100 µM
NCI-H522 lung
  TGI: > 100 µM
OVCAR-3 ovarian
  TGI: > 100 µM
OVCAR-4 ovarian
  TGI: > 100 µM
OVCAR-5 ovarian
  TGI: > 100 µM
OVCAR-8 ovarian
  TGI: > 100 µM
RPMI-8226 leukemia
  TGI: > 100 µM
RXF 393 renal
  TGI: > 100 µM
SF-268 CNS
  TGI: > 100 µM
SF-295 CNS
  TGI: > 100 µM
SF-539 CNS
  TGI: > 100 µM
SK-MEL-2 melanoma
  TGI: > 100 µM
SK-MEL-28 melanoma
  TGI: > 100 µM
SK-MEL-5 melanoma
  TGI: > 100 µM
SK-OV-3 ovarian
  TGI: > 100 µM
SN12C renal
  TGI: > 100 µM
SNB-19 CNS
  TGI: > 100 µM
SNB-75 CNS
  TGI: > 100 µM
SNB-78 CNS
  TGI: > 100 µM
SR leukemia
  TGI: > 100 µM
SW-620 colon
  TGI: > 100 µM
TK-10 renal
  TGI: > 100 µM
U251 CNS
  TGI: > 100 µM
UACC-257 melanoma
  TGI: > 100 µM
UACC-62 melanoma
  TGI: > 100 µM
UO-31 renal
  TGI: > 100 µM
XF 498 CNS
  TGI: > 100 µM

From PubChem BioAssay (NCI)
